Series [1] relates to isolated rabbit thoracic aorta preparations. Kind of series: Studies on vascular tone: vasorelaxation in isolated rabbit thoracic aorta preparations. The class given is cell-based. Conditions: vasorelaxation of rabbit aortic rings precontracted with noradrenaline 1 μM, functional endothelium; for EC50: Oryctolagus cuniculus, read-out: EC50 (μM) ± sem. As to the method: The ability of ARB nitroderivatives to induce vasorelaxation in comparison to native ARBs, was tested in vitro in isolated rabbit thoracic aorta preparations (Wanstall J. C. et al., Br. J. Pharmacol., 134:463-472, 2001). Male New Zealand rabbits were anaesthetized with thiopental-Na (50 mg/kg, iv), sacrificed by exsanguinations and then the thorax was opened and the aorta dissected. Aortic ring preparations (4 mm in length) were set up in physiological salt solution (PSS) at 37° C. in small organ chambers (5 ml). The composition of PSS was (mM): NaCl 130, NaHCO3 14.9, KH2PO4 1.2, MgSO4 1.2, HEPES 10, CaCl2, ascorbic acid […] and glucose […] (95% O2/5% CO2; pH 7.4). Each ring was mounted under 2 g passive tension. Isometric tension was recorded with a Grass transducer (Grass FT03) attached to a BIOPAC MP150 System. Preparations were allowed to equilibrate for 1 h, and then contracted submaximally with noradrenaline (NA, 1 μM) and, when the contraction was stable, acetylcholine (ACh, 10 μM) was added. A relaxant response to ACh indicated the presence of a functional endothelium. […] When a stable precontraction was reached, a cumulative concentration-response curve to either of the vasorelaxant agents was obtained in the presence of a functional endothelium. Each arterial ring was exposed to only one combination of inhibitor and vasorelaxant. Moreover, the effect of the soluble guanylyl cyclase inhibitor ODQ (1-H-(1,2,4)-oxadiazol(4,3-a)quinoxalin-1-one) on vasorelaxation elicited by the compounds was examined preincubating the aortic rings with ODQ (10 μM) for 20 min.
Responses to relaxing agents are expressed as a percentage of residual contraction and plotted against concentration of test compound. EC50 values (where EC50 is the concentration producing 50% of the maximum relaxation to the test compound) were interpolated from these plots. During the experimental period, the plateau obtained with NA was stable without significant spontaneous loss of contraction in the aortic rings.
Furthermore, in experiments performed in the presence of ODQ (10 μM), the vasorelaxant responses to tested compounds were inhibited.

For series [2], the system named is spontaneously hypertensive rats (SHRs). Kind of series: Antihypertensive activity in vivo in conscious spontaneously hypertensive rats. Set-up: species or system rat. Conditions: SHR, 10 mpk po single dose, delta vs baseline, telemetry (EXP 3174: tail-cuff method). As to the method:
The ability of the compounds of the invention to decrease blood pressure was evaluated in conscious spontaneously hypertensive rats (SHRs). SHRs (250-300 g) received a single oral dose of EXP 3174 or the corresponding nitroderivative. Systolic blood pressure (SBP) and heart rate were monitored by telemetry for 24 hours after dosing. SBP was evaluated before (baseline) and after (i.e. 6, 24 hours) treatment by oral administration of the compounds. The data were processed both as the absolute value or as a delta between the absolute value and its own baseline.
The Dataquest IV telemetry system (Data Sciences International) was used for measurement of systolic pressure, diastolic pressure, mean arterial pressure, heart rate, and motor activity. The monitoring system consists of a transmitter (radio frequency transducer model TA11PA), receiver panel, consolidation matrix, and personal computer with accompanying software. Before the device was implanted, calibrations were verified to be accurate within ±3 mmHg. Rats were anesthetized with ketamine/xylazine/acepromazine, and the flexible catheter of the transmitter was surgically secured in the abdominal aorta just below the renal arteries. The transmitter was sutured subcutaneously. Rats were housed in individual cages after the operation. Each cage was placed over the receiver panel that was connected to the personal computer for data acquisition. The rats were unrestrained and free to move within their cages. Hemodynamic data were sampled every 2 minutes for 10 seconds.

Series [3] is described as follows: Solubility test in PEG 400/H2O 7/3. The class given is physicochemical. Conditions: PEG 400/H2O 7/3, aqueous with cosolvent or surfactant or cyclodextrin, thermodynamic from solid; PEG400/H2O 70:30, 5.0 mg in 1 ml, mixed 1 hour, filtered; read-out: Solubility PEG400/H2O 70:30 (mg/ml) target 5 mg/ml. Here is the method: The solubility of the tested compounds in PEG 400/H2O 7/3 was evaluated using a standard curve constructed of six calibration points by plotting the peak areas of the compounds of the invention versus the concentration.
Test solution: 5.0 mg of the nitroderivative were dissolved in 0.7 ml of PEG 400 in a glass volumetric flask and 0.3 ml of water were added. The solution was mixed for 1 hour and filtered through 0.45 μm Acrodisc filter.

≈ marks a conversion by molar mass, not a printed value.

For the molecule `CCCCc1nc(Cl)c(CO)n1Cc1ccc(-c2ccccc2-c2nn[nH]n2)cc1` [Losartan, reference compound], the “EC50 (μM) ± sem” value in series [1] is given as “no effect”.

On to `CCCCc1nc(Cl)c(C(=O)N[C@@H](CCC(=O)OCCCCO[N+](=O)[O-])C(=O)OCCCCO[N+](=O)[O-])n1Cc1ccc(-c2ccccc2-c2nn[nH]n2)cc1` [EX. 10], for which the 50% effective concentration (EC50) (in general, the concentration needed to bring the measured effect to its halfway point) in series [1] stood at 5.4 ± 1.8 µM. Also, in series [2], the “Δ Systolic blood pressure (mmHg) 6 hrs” value was −6 mmHg and the “Δ Systolic blood pressure (mmHg) 24 hrs” value is −11 mmHg.

With `CCCCc1nc(Cl)c(C(=O)O)n1Cc1ccc(-c2ccccc2-c2nn[nH]n2)cc1` [EXP 3174, 2-butyl-4-chloro-1-{[2′-(1H-tetrazol-5-yl)biphenyl-4-yl]methyl}-1H-imidazole-5-carboxylic acid, reference compound], the “EC50 (μM) ± sem” value in series [1] is “no effect”. In series [2], the “Δ Systolic blood pressure (mmHg) 6 hrs” value was −5 mmHg and the “Δ Systolic blood pressure (mmHg) 24 hrs” value is reported as 2 mmHg.

Turning to `CCCCc1nc(Cl)c(C(=O)N[C@@H](CCCNC(=N)N)C(=O)OCCCCO[N+](=O)[O-])n1Cc1ccc(-c2ccccc2-c2nn[nH]n2)cc1` [EX. 13, (S)-4-(nitrooxy)butyl 2-(1-((2′-(2H-tetrazol-5-yl)biphenyl-4-yl)methyl)-2-butyl-4-chloro-1H-imidazole-5-carboxamido)-5-guanidinopentanoate], in series [1], the EC50 is 30.6 ± 4.7 µM.

Consider `CCCCc1nc(Cl)c(C(=O)NCC(=O)OCc2ccc(CO[N+](=O)[O-])cc2)n1Cc1ccc(-c2ccccc2-c2nnn[nH]2)cc1` [(46), 4-(nitrooxymethyl)benzyl 2-(1-((2′-(2H-tetrazol-5-yl)biphenyl-4-yl)methyl)-2-butyl-4-chloro-1H-imidazole-5-carboxamido)acetate], for which, in series [3], the solubility at 1 h is 5.07 mg/mL (≈ 7.69 mM).

For `CCOc1nc2cccc(C(=O)O)c2n1Cc1ccc(-c2ccccc2-c2nnn[nH]2)cc1` [Candesartan, reference compound], the “EC50 (μM) ± sem” value in series [1] was “no effect”.

In the case of `CCCCc1nc(Cl)c(COC(=O)NCCOC(=O)CCCO[N+](=O)[O-])n1Cc1ccc(-c2ccccc2-c2nnn[nH]2)cc1` [EX. 1, 2-(((1-((2′-(1H-tetrazol-5-yl)biphenyl-4-yl)methyl)-2-butyl-4-chloro-1H-imidazol-5-yl)methoxy)carbonylamino)ethyl 4-(nitrooxy)butanoate], the EC50 in series [1] is 23.6 ± 3.9 µM. The solubility at 1 h in series [3] is 4 mg/mL (≈ 6.24 mM).

In the case of `CCCCc1nc(Cl)c(C(=O)NCC(=O)NCCCCO[N+](=O)[O-])n1Cc1ccc(-c2ccccc2-c2nnn[nH]2)cc1` [EX. 11, 4-(2-(1-((2′-(1H-tetrazol-5-yl)biphenyl-4-yl)methyl)-2-butyl-4-chloro-1H-imidazole-5-carboxamido)acetamido)butyl nitrate], the EC50 in series [1] was 38.7 ± 5.3 µM. Also, in series [2], the “Δ Systolic blood pressure (mmHg) 6 hrs” value was −6 mmHg and the “Δ Systolic blood pressure (mmHg) 24 hrs” value is given as −17 mmHg. The solubility at 1 h in series [3] worked out at 4.6 mg/mL.

In the case of `CCCCc1nc(Cl)c(C(=O)N2CCC[C@H]2C(=O)OCCCCO[N+](=O)[O-])n1Cc1ccc(-c2ccccc2-c2nn[nH]n2)cc1` [EX. 7, (S)-4-(nitrooxy)butyl 1-(1-((2′-(2H-tetrazol-5-yl)biphenyl-4-yl)methyl)-2-butyl-4-chloro-1H-imidazole-5-carbonyl)pyrrolidine-2-carboxylate], the EC50 in series [1] stood at 7.1 ± 1.9 µM. Also, the solubility at 1 h in series [3] is greater than 5 mg/mL.

Consider `CCCCc1nc(Cl)c(C(=O)N[C@@H](Cc2ccccc2)C(=O)OCCCCC(CO[N+](=O)[O-])O[N+](=O)[O-])n1Cc1ccc(-c2ccccc2-c2nnn[nH]2)cc1` (stereo in doubt) [EX. 9, (S)-(5,6-bis(nitrooxy)hexyl) 2-(1-((2′-(1H-tetrazol-5-yl)biphenyl-4-yl)methyl)-2-butyl-4-chloro-1H-imidazole-5-carboxamido)-3-phenylpropanoate], for which the EC50 in series [1] amounted to 3.4 ± 0.8 µM. Besides, the solubility at 1 h in series [3] worked out at 4.9 mg/mL (≈ 6.2 mM).

As to `CCCCc1nc(Cl)c(COC(=O)N[C@H](COC(=O)CCCO[N+](=O)[O-])Cc2ccccc2)n1Cc1ccc(-c2ccccc2-c2nnn[nH]2)cc1` [EX. 2, (S)-2-(((1-((2′-(1H-tetrazol-5-yl)biphenyl-4-yl)methyl)-2-butyl-4-chloro-1H-imidazol-5-yl)methoxy)carbonylamino)-3-phenylpropyl 4-(nitrooxy)butanoate], the EC50 in series [1] turned out to be 40.1 ± 2.7 µM. Also, the solubility at 1 h in series [3] is greater than 5 mg/mL.

Turning to `CCCCc1nc(Cl)c(C(=O)N[C@@H](Cc2ccccc2)C(=O)OCCCCO[N+](=O)[O-])n1Cc1ccc(-c2ccccc2-c2nnn[nH]2)cc1` [EX. 6], the EC50 in series [1] came to 14.2 ± 8 µM. In series [2], the “Δ Systolic blood pressure (mmHg) 6 hrs” value is given as −12 mmHg and the “Δ Systolic blood pressure (mmHg) 24 hrs” value is reported as −13 mmHg. For the same molecule, the solubility at 1 h in series [3] is greater than 5 mg/mL.

On to `CCCCc1nc(Cl)c(C(=O)NCC(=O)OCCCCO[N+](=O)[O-])n1Cc1ccc(-c2ccccc2-c2nnn[nH]2)cc1` [EX. 5, 4-(Nitrooxy)butyl 2-(1-((2′-(1H-tetrazol-5-yl)biphenyl-4-yl)methyl)-2-butyl-4-chloro-1H-imidazole-5-carboxamido)acetate], for which the concentration giving a half-maximal response (EC50) in series [1] was determined as 9.2 ± 2.5 µM. Moreover, in series [2], the “Δ Systolic blood pressure (mmHg) 6 hrs” value is on record as −7 mmHg and the “Δ Systolic blood pressure (mmHg) 24 hrs” value is on record as −11 mmHg. Further, the solubility at 1 h in series [3] turned out to be 4.2 mg/mL (≈ 6.87 mM).

For the molecule `CCCCc1nc(Cl)c(COC(=O)N[C@@H](CCCCN)C(=O)OCCCCO[N+](=O)[O-])n1Cc1ccc(-c2ccccc2-c2nnn[nH]2)cc1` [EX. 4, 4-(nitrooxy)butyl 2-(((1-((2′-(1H-tetrazol-5-yl)biphenyl-4-yl)methyl)-2-butyl-4-chloro-1H-imidazol-5-yl)methoxy)carbonylamino)-6-aminohexanoate], the EC50 in series [1] stood at 46 ± 7.2 µM.

As for `CCCCc1nc(Cl)c(C(=O)N[C@@H](CC(=O)OCCCCO[N+](=O)[O-])C(=O)OCCCCO[N+](=O)[O-])n1Cc1ccc(-c2ccccc2-c2nn[nH]n2)cc1` [EX. 8, (S)-bis(4-(nitrooxy)butyl) 2-(1-((2′-(2H-tetrazol-5-yl)biphenyl-4-yl)methyl)-2-butyl-4-chloro-1H-imidazole-5-carboxamido)succinate], in series [1], the EC50 turned out to be 10.4 ± 2.5 µM.

As for `CCCCc1nc(Cl)c(COC(=O)NCC(=O)OCCCCO[N+](=O)[O-])n1Cc1ccc(-c2ccccc2-c2nnn[nH]2)cc1` [EX. 3, 4-(nitrooxy)butyl 2-(((1-((2′-(1H-tetrazol-5-yl)biphenyl-4-yl)methyl)-2-butyl-4-chloro-1H-imidazol-5-yl)methoxy)carbonylamino)acetate], the EC50 in series [1] was 9.2 ± 4.1 µM. Also, in series [3], the solubility at 1 h is greater than 5 mg/mL.

The values are drawn from patent US20110052674A1, “ANGIOTENSIN II RECEPTOR BLOCKER DERIVATIVES” (MERCK SHARP & DOHME CORP., priority 2008, published 2011).
